The values below are quoted from earlier work in US20060205810A1, “Platinum therapeutic combinations” (Schering Corporation, priority 2004, published 2006).

Series [1] has as its system intrinsic and acquired resistance to cisplatin. Conditions: cell culture studies.
Series [2] has as its system human ovarian carcinoma cells.
The conditions of series [3]: incubated with fresh human whole blood in vitro.
Series [4] has as its system small cell lung cancer (SCLC). Conditions: small cell lung cancer patients.

As for `N.NC1CCCCC1.[Cl-].[Cl-].[Pt+2]` [JM118], the “circumvention of resistance to cisplatin” value in series [1] is “can partially circumvent intrinsic and acquired resistance to cisplatin”. Besides, the “cytotoxicity compared with cisplatin” value in series [2] is “greater cytotoxicity than cisplatin”.

On to `CC(=O)[O][Pt]([NH2])([Cl])([Cl])([NH]C1CCCCC1)[O]C(C)=O` [satraplatin], for which the “circumvention of resistance to cisplatin” value in series [1] is “can partially circumvent intrinsic and acquired resistance to cisplatin”. Besides, in series [3], the “added platinum associated with red blood cells” value is recorded as 62% and the “half-life for the disappearance of the drug” value is 6.3 min. For the same compound, in series [4], the complete responses result is listed as “no complete responses” and the “median overall survival time” value is given as 210 days. The tumor response rate in series [4] (10 of 26) is 38%.
